The values below come from patent publication US10736883B2, “Triazole furan compounds as agonists of the APJ receptor” (AMGEN INC., priority 2016, dated 2020).

In the assay the target is APJ receptor (Homo sapiens (Human), UniProt P35414). The assay can be described thus: [35S]GTPγS binding assay on membranes from CHO cells stably expressing human APJ receptor. In kind it is biochemical. The note with it: membranes of CHO cells stably expressing human APJ receptor, means of several independent experiments, read-out: Activity hAPJ SPA EC50 IP. The essentials: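 EC50 values were obtained by non-linear regression of [35S]GTPγS (0.2 nM) binding after 90 min at RT, with nonspecific binding defined by 100 μM GTPγS. Reactions used human APJ–expressing CHO cell membranes on WGA PS beads in HEPES pH 7.5 buffer with 5 mM MgCl2, 200 mM NaCl, 3 μM GDP and 0.1% BSA.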
APJ receptor, sequence (P35414 whole entry): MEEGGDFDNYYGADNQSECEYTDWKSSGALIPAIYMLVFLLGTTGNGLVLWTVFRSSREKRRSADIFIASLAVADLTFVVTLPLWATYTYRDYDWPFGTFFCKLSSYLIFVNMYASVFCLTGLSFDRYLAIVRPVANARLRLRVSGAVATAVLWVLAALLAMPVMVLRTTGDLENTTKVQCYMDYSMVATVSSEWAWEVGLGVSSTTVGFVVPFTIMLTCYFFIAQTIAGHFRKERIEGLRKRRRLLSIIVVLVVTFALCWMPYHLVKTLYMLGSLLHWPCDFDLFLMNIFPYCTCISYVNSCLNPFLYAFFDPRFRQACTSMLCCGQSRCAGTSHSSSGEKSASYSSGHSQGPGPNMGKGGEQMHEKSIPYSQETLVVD
(In general: Binding of GTPγS marks nucleotide exchange on a G protein.)
For `COc1cccc(OC)c1-n1c(NS(=O)(=O)[C@H]2C[C@@H](O)CN(c3ncc(F)cn3)C2)nnc1-c1ccc(C)o1` (racemic) [Example 332.0], the EC50 was found to be 0.45 nM. The value for `COc1cccc(OC)c1-n1c(NS(=O)(=O)[C@H]2C[C@@H](O)CN(c3cc(C#N)ccn3)C2)nnc1-c1ccc(C)o1` (racemic) [Example 333.0, (3S,5R)-1-(4-Cyanopyridin-2-yl)-N-(4-(2,6-dimethoxyphenyl)-5-(5-methylfuran-2-yl)-4H-1,2,4-triazol-3-yl)-5-hydroxypiperidine-3-sulfonamide and (3R,5S)-1-(4-cyanopyridin-2-yl)-N-(4-(2,6-dimethoxyphenyl)-5-(5-methylfuran-2-yl)-4H-1,2,4-triazol-3-yl)-5-hydroxypiperidine-3-sulfonamide] was 0.45 nM; that for `COc1cnc(N2C[C@H](O)C[C@H](S(=O)(=O)Nc3nnc(-c4ccc(C)o4)n3-c3c(OC)cccc3OC)C2)nc1` (racemic) [Example 335.0, (3S,5R)—N-(4-(2,6-Dimethoxyphenyl)-5-(5-methylfuran-2-yl)-4H-1,2,4-triazol-3-yl)-5-hydroxy-1-(5-methoxypyrimidin-2-yl)piperidine-3-sulfonamide and (3R,5S)—N-(4-(2,6-dimethoxyphenyl)-5-(5-methylfuran-2-yl)-4H-1,2,4-triazol-3-yl)-5-hydroxy-1-(5-methoxypyrimidin-2-yl)piperidine-3-sulfonamide] was 0.52 nM. To `COc1cccc(OC)c1-n1c(NS(=O)(=O)[C@@H](C)Cc2ncc(F)c3[nH]cnc23)nnc1-c1ccco1` (single isomer, unassigned) [Example 5.0, (2S)—N-(4-(2,6-dimethoxyphenyl)-5-(2-furanyl)-4H-1,2,4-triazol-3-yl)-1-(7-fluoro-1H-imidazo[4,5-c]pyridin-4-yl)-2-propanesulfonamide or (2R)—N-(4-(2,6-dimethoxyphenyl)-5-(2-furanyl)-4H-1,2,4-triazol-3-yl)-1-(7-fluoro-1H-imidazo[4,5-c]pyridin-4-yl)-2-propanesulfonamide] belongs 0.95 nM; to `COc1cccc(OC)c1-n1c(NS(=O)(=O)[C@H](C)Cc2ncc(Cl)cc2NC(C)=O)nnc1-c1ccco1` (single isomer, unassigned) [Example 9.0, N-(5-chloro-2-((2R)-2-((4-(2,6-dimethoxyphenyl)-5-(2-furanyl)-4H-1,2,4-triazol-3-yl)sulfamoyl)propyl)-3-pyridinyl)acetamide or N-(5-chloro-2-((2S)-2-((4-(2,6-dimethoxyphenyl)-5-(2-furanyl)-4H-1,2,4-triazol-3-yl)sulfamoyl)propyl)-3-pyridinyl)acetamide], 0.091 nM. With `COc1cccc(OC)c1-n1c(NS(=O)(=O)[C@@H](C)[C@@H](O)c2ccc(C#N)cn2)nnc1-c1ccc(C)o1` (single isomer, unassigned) [Example 10.0, (1S,2S)-1-(5-cyano-2-pyridinyl)-N-(4-(2,6-dimethoxyphenyl)-5-(5-methyl-2-furanyl)-4H-1,2,4-triazol-3-yl)-1-hydroxy-2-propanesulfonamide or (1R,2R)-1-(5-cyano-2-pyridinyl)-N-(4-(2,6-dimethoxyphenyl)-5-(5-methyl-2-furanyl)-4H-1,2,4-triazol-3-yl)-1-hydroxy-2-propanesulfonamide], the EC50 worked out at 0.11 nM. To `COc1cccc(OC)c1-n1c(NS(=O)(=O)[C@H](C)Cc2ccc(Cl)cn2)nnc1-c1ccco1` (single isomer, unassigned) [Example 11.0, (2R)-1-(5-chloro-2-pyridinyl)-N-(4-(2,6-dimethoxyphenyl)-5-(2-furanyl)-4H-1,2,4-triazol-3-yl)-2-propanesulfonamide or (2S)-1-(5-chloro-2-pyridinyl)-N-(4-(2,6-dimethoxyphenyl)-5-(2-furanyl)-4H-1,2,4-triazol-3-yl)-2-propanesulfonamide] belongs 0.14 nM; to `COc1cccc(OC)c1-n1c(NS(=O)(=O)[C@H](C)Cc2ccc(C#N)cn2)nnc1-c1ccc(C)o1` (single isomer, unassigned) [Example 12.0, (2R)-1-(5-cyano-2-pyridinyl)-N-(4-(2,6-dimethoxyphenyl)-5-(5-methyl-2-furanyl)-4H-1,2,4-triazol-3-yl)-2-propanesulfonamide or (2S)-1-(5-cyano-2-pyridinyl)-N-(4-(2,6-dimethoxyphenyl)-5-(5-methyl-2-furanyl)-4H-1,2,4-triazol-3-yl)-2-propanesulfonamide], 0.15 nM; to `COc1cccc(OC)c1-n1c(NS(=O)(=O)[C@@H](C)Cc2ncc(C)cn2)nnc1-c1ccc(C)o1` (single isomer, unassigned) [Example 16.0, (2S)—N-(4-(2,6-dimethoxyphenyl)-5-(5-methyl-2-furanyl)-4H-1,2,4-triazol-3-yl)-1-(5-methyl-2-pyrimidinyl)-2-propanesulfonamide or (2R)—N-(4-(2,6-dimethoxyphenyl)-5-(5-methyl-2-furanyl)-4H-1,2,4-triazol-3-yl)-1-(5-methyl-2-pyrimidinyl)-2-propanesulfonamide], 0.22 nM. The value for `COc1cccc(OC)c1-n1c(NS(=O)(=O)[C@@H](C)Cc2ncc(Cl)cc2C(N)=O)nnc1-c1ccco1` (single isomer, unassigned) [Example 17.0, 5-chloro-2-((2S)-2-((4-(2,6-dimethoxyphenyl)-5-(2-furanyl)-4H-1,2,4-triazol-3-yl)sulfamoyl)propyl)-3-pyridinecarboxamide or 5-chloro-2-((2R)-2-((4-(2,6-dimethoxyphenyl)-5-(2-furanyl)-4H-1,2,4-triazol-3-yl)sulfamoyl)propyl)-3-pyridinecarboxamide] was 0.26 nM.

Consider `COc1cccc(OC)c1-n1c(NS(=O)(=O)[C@H](C)Cc2ncc(Cl)cc2C#N)nnc1-c1ccco1` (single isomer, unassigned) [Example 20.0, (2R)-1-(5-chloro-3-cyano-2-pyridinyl)-N-(4-(2,6-dimethoxyphenyl)-5-(2-furanyl)-4H-1,2,4-triazol-3-yl)-2-propanesulfonamide or (2S)-1-(5-chloro-3-cyano-2-pyridinyl)-N-(4-(2,6-dimethoxyphenyl)-5-(2-furanyl)-4H-1,2,4-triazol-3-yl)-2-propanesulfonamide], for which the half-maximal effective concentration (EC50) was 0.3 nM.

In the case of `CCN(CC)C(=O)c1cc(Cl)cnc1C[C@@H](C)S(=O)(=O)Nc1nnc(-c2ccco2)n1-c1c(OC)cccc1OC` (single isomer, unassigned) [Example 21.0, 5-chloro-2-((2R)-2-((4-(2,6-dimethoxyphenyl)-5-(2-furanyl)-4H-1,2,4-triazol-3-yl)sulfamoyl)propyl)-N,N-diethyl-3-pyridinecarboxamide or 5-chloro-2-((2S)-2-((4-(2,6-dimethoxyphenyl)-5-(2-furanyl)-4H-1,2,4-triazol-3-yl)sulfamoyl)propyl)-N,N-diethyl-3-pyridinecarboxamide], the EC50 was 0.31 nM. To `COc1cccc(OC)c1-n1c(NS(=O)(=O)[C@H](C)Cc2ccc(Br)cn2)nnc1-c1ccco1` (single isomer, unassigned) [Example 23.0, (2R)-1-(5-bromo-2-pyridinyl)-N-(4-(2,6-dimethoxyphenyl)-5-(2-furanyl)-4H-1,2,4-triazol-3-yl)-2-propanesulfonamide or (2S)-1-(5-bromo-2-pyridinyl)-N-(4-(2,6-dimethoxyphenyl)-5-(2-furanyl)-4H-1,2,4-triazol-3-yl)-2-propanesulfonamide] belongs 0.36 nM.

A word on the EC50: it is the concentration that produces a half-maximal response.
